This is an account of results in patent US20180044304A1, “1,3,4-OXADIAZOLE AND THIADIAZOLE COMPOUNDS AS IMMUNOMODULATORS” (AURIGENE DISCOVERY TECHNOLOGIES LIMITED, priority 2015, published 2018).

The target of this assay is T1, Recombinant mouse PD-L1 (Mus musculus, UniProt Q9EP73).
T1 construct: Fc (Fc chimera); purchased R&D Systems 1019-B7-100
Put plainly: Rescue of mouse splenocyte proliferation in the presence of recombinant PD-L1 (CFSE proliferation assay). The format is cell-based. The conditions noted are these: 100 nM compound; anti-CD3/CD28 stimulated C57 BL6 mouse splenocytes with PD-L1; 72 h; stimulated splenocyte proliferation = 100%; read-out: Percent rescue of splenocyte proliferation (@100 nM compound concentration). As for the experimental part:
Rescue of Mouse Splenocyte Proliferation in the Presence of Recombinant PD-L1
Recombinant mouse PD-L1 (rm-PDL-1, cat no: 1019-B7-100; R&D Systems) were used as the source of PD-L1.
Mouse splenocytes harvested from 6-8 weeks old C57 BL6 mice; RPMI 1640 (GIBCO, Cat #11875); DMEM with high glucose (GIBCO, Cat #D6429); Fetal Bovine Serum [Hyclone, Cat #SH30071.03]; Penicillin (10000 unit/mL)-Streptomycin(10,000 μg/mL) Liquid (GIBCO, Cat #15140-122); MEM Sodium Pyruvate solution 100 mM (100×), Liquid (GIBCO, Cat #11360); Nonessential amino acid (GIBCO, Cat #11140); L-Glutamine (GIBCO, Cat #25030); Anti-CD3 antibody (eBiosciences—16-0032); Anti-CD28 antibody (eBiosciences—16-0281); ACK lysis buffer (1 mL) (GIBCO, Cat #-A10492); Histopaque (density-1.083 gm/mL) (SIGMA 10831); Trypan blue solution (SIGMA-T8154); 2 mL Norm Ject Luer Lock syringe-(Sigma 2014-12); 40 μm nylon cell strainer (BD FALCON 35230); Hemacytometer (Bright line-SIGMA Z359629); FACS Buffer (PBS/0.1% BSA): Phosphate Buffered Saline (PBS) pH 7.2 (HiMedia TS1006) with 0.1% Bovine Serum Albumin (BSA) (SIGMA A7050) and sodium azide (SIGMA 08591); 5 mM stock solution of CFSE: CFSE stock solution was prepared by diluting lyophilized CFSE with 180 μl of Dimethyl sulfoxide (DMSO C2H6SO, SIGMA-D-5879) and aliquoted in to tubes for further use. Working concentrations were titrated from 10 μM to 1 μM. (eBioscience-650850-85); 0.05% Trypsin and 0.02% EDTA (SIGMA 59417C); 96-well format ELISA plates (Corning CLS3390); BD FACS caliber (E6016); Recombinant mouse B7-H1/PDL1 Fc Chimera, (rm-PD-L1 cat no: 1019-B7-100).
Splenocytes harvested in a 50 mL falcon tube by mashing mouse spleen in a 40 μm cell strainer were further treated with 1 mL ACK lysis buffer for 5 min at room temperature. After washing with 9 mL of RPMI complete media, cells were re-suspended in 3 mL of 1× PBS in a 15 mL tube. 3 mL of Histopaque was added carefully to the bottom of the tube without disturbing overlaying splenocyte suspension. After centrifuging at 800×g for 20 min at room temperature, the opaque layer of splenocytes was collected carefully without disturbing/mixing the layers. Splenocytes were washed twice with cold 1× PBS followed by total cell counting using Trypan Blue exclusion method and used further for cell based assays.
Splenocytes were cultured in RPMI complete media (RPMI+10% fetal bovine serum+1 mM sodium pyruvate+10,000 units/mL penicillin and 10,000 μg/mL streptomycin) and maintained in a CO2 incubator with 5% CO2 at 37° C.
CFSE is a dye that passively diffuses into cells and binds to intracellular proteins. 1×10^6 cells/mL of harvested splenocytes were treated with 5 μM of CFSE in pre-warmed 1× PBS/0.1% BSA solution for 10 min at 37° C. Excess CFSE was quenched using 5 volumes of ice-cold culture media to the cells and incubated on ice for 5 min. CFSE labelled splenocytes were further given three washes with ice cold complete RPMI media. CFSE labelled 1×10^5 splenocytes added to wells containing either MDA-MB231 cells (1×10^5 cells cultured in high glucose DMEM medium) or recombinant human PDL-1 (100 ng/mL) and test compounds. Splenocytes were stimulated with anti-mouse CD3 and anti-mouse CD28 antibody (1 μg/mL each) and the culture was further incubated for 72 h at 37° C. with 5% CO2. Cells were harvested and washed thrice with ice cold FACS buffer and % proliferation was analysed by flow cytometry with 488 nm excitation and 521 nm emission filters.
Percent splenocyte proliferation was analysed using cell quest FACS program and percent rescue of splenocyte proliferation by compound was estimated after deduction of % background proliferation value and normalising to % stimulated splenocyte proliferation (positive control) as 100%. • Stimulated splenocytes: Splenocytes+anti-CD3/CD28 stimulation • Background proliferation: Splenocytes+anti-CD3/CD28+PD-L1 • Compound proliferation: Splenocytes+anti-CD3/CD28+PD-L1+Compound […]

T1 sequence (Q9EP73 with tags, fused parts or gaps limits assumed): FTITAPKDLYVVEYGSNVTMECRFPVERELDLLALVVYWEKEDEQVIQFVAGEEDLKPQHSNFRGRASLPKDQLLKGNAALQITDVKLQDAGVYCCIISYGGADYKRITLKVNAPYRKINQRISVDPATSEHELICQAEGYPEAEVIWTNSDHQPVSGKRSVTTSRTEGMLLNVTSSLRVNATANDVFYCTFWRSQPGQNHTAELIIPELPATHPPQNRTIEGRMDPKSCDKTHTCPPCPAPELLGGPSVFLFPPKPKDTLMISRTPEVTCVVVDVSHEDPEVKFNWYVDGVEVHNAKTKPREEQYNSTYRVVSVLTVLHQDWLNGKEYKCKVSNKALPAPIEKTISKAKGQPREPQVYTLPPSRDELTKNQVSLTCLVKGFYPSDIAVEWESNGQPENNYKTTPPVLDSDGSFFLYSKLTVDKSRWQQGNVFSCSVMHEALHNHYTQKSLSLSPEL

As to `CCC(C)[C@H](NC(=O)N[C@@H](CCC(=O)O)C(=O)O)c1nnc([C@@H](N)CCC(=O)O)o1` (stereo partly drawn) [Compound 2], the activation at 0.1 µM came out at 49%. In the case of `NCCCC[C@H](N)c1nnc([C@H](CC(N)=O)NC(=O)N[C@@H](CCC(=O)O)C(=O)O)o1` [Compound 1] it was 79%.

As to `NCCCC[C@H](NC(=O)N[C@@H](CC(N)=O)c1nnc([C@@H](N)CO)o1)C(=O)O` [Compound 13], the activation at 0.1 µM was 29%. As for `CCC(C)[C@H](N)c1nnc([C@@H](NC(=O)N[C@@H](CCC(=O)O)C(=O)O)C(C)CC)o1` (stereo partly drawn) [Compound 12], the figure is 68%; as for `CSC[C@H](N)c1nnc([C@H](CC(N)=O)NC(=O)N[C@H](C(=O)O)C(C)O)o1` (stereo partly drawn) [Compound 24], 47%. In the case of `CC(O)[C@H](NC(=O)N[C@@H](CCC(=O)O)c1nnc([C@@H](N)CCCCN)o1)C(=O)O` (stereo partly drawn) [Compound 18] it was 41%.

In the case of `NC(=O)CC[C@H](NC(=O)N[C@@H](CO)c1nnc([C@@H](N)Cc2c[nH]c3ccccc23)o1)C(=O)O` [Compound 20], the activation at 0.1 µM stood at 74%.

Turning to `CCC(C)[C@H](NC(=O)N[C@H](C(=O)O)C(C)O)c1nnc([C@@H](N)CO)o1` (stereo partly drawn) [Compound 5], the activation at 0.1 µM came to 16%. In the case of `CC(O)[C@H](NC(=O)N[C@@H](Cc1ccccc1)c1nnc([C@@H](N)CO)o1)C(=O)O` (stereo partly drawn) [Compound 7], the activation at 0.1 µM amounted to 29%. As for `NCCCC[C@H](N)c1nnc([C@H](CC(N)=O)NC(=O)N[C@@H](CO)C(=O)O)o1` [Compound 11], the figure is 30%.

In the case of `NC(=O)C[C@H](NC(=O)N[C@@H](Cc1ccccc1)C(=O)O)c1nnc([C@@H](N)CO)o1` [Compound 15], the activation at 0.1 µM amounted to 23%. Take `N[C@@H](Cc1ccc(O)cc1)c1nnc([C@@H]2CCCN2C(=O)N[C@@H](Cc2ccc(O)cc2)C(=O)O)o1` [Compound 8]: the activation at 0.1 µM stood at 60%. As for `NC(=O)C[C@H](NC(=O)N[C@@H](CC(=O)O)C(=O)O)c1nnc([C@@H](N)CO)o1` [Compound 10], the figure is 34%. Turning to `CC(O)[C@H](NC(=O)N[C@@H](CC(N)=O)c1nnc([C@@H](N)CC(=O)O)o1)C(=O)O` (stereo partly drawn) [Compound 16], the activation at 0.1 µM is 37%.

Consider `N[C@@H](CO)c1nnc([C@H](Cc2c[nH]c3ccccc23)NC(=O)N[C@@H](CC(=O)O)C(=O)O)o1` [Compound 28], for which the activation at 0.1 µM was found to be 66%. As for `CC(O)[C@H](NC(=O)N[C@@H](CCCCN)c1nnc([C@@H](N)CO)o1)C(=O)O` (stereo partly drawn) [Compound 6], the figure is 30%. As for `CC(O)[C@H](NC(=O)N[C@H](c1nnc([C@@H](N)C(C)O)o1)C(C)O)C(=O)O` (stereo partly drawn) [Compound 9], the figure is 29%. As to `CC(O)[C@H](NC(=O)N[C@@H](CC(N)=O)c1nnc([C@@H](N)CCCCN)o1)C(=O)O` (stereo partly drawn) [Compound 4], the activation at 0.1 µM turned out to be 70%.
